Test results reported in ChEMBL document CHEMBL1150532, “Syntheses and antifilarial profile of 5-amino and 5,8-diamino-isoquinoline derivatives: A new class of antifilarial agents” (1996).

Key:
Format in all cases: functional
[1] = system: Mastomys natalensis; test: Compound was evaluated in vivo for microfilaricidal activity against Acanthocheilonema viteae infection in Mastomys natalensis
[2] = system: Acanthocheilonema viteae; test: In vitro inhibition of ATP content in worms at concentration 1.0 uM
[3] = system: Acanthocheilonema viteae; test: Antifilarial activity was measured by percent sterilization of A. viteae at dose 50 mg/kg *5days (i.p.); 0 represents inactive; details: route intraperitoneal
[4] = system: Acanthocheilonema viteae; test: In vitro inhibition of Tubulin content in worms at concentration 1.0 uM
[5] = system: Acanthocheilonema viteae; test: In vitro inhibition of glucose uptake by Acanthocheilonema viteae at concentration 1.0 uM
[6] = system: Acanthocheilonema viteae; test: In vitro increase in lactate production at concentration 1.0 uM
[7] = system: Mastomys natalensis; test: Compound was evaluated in vivo for microfilaricidal activity against Acanthocheilonema viteae infection in Mastomys natalensis at dose 50 mg/kg/5days (i.p.); details: route intraperitoneal
[8] = system: Mastomys natalensis; test: Compound was evaluated in vivo for microfilaricidal activity against Acanthocheilonema viteae infection in Mastomys natalensis at dose 50 mg/kg/5days (i.p.); 0 represents inactive; details: route intraperitoneal
[9] = system: Acanthocheilonema viteae; test: Antifilarial activity was measured by percent sterilization of A. viteae at dose 50 mg/kg/5days (i.p.); 0 represents inactive; details: route intraperitoneal
[10] = system: Mastomys natalensis; test: Compound was evaluated in vivo for microfilaricidal activity against Acanthocheilonema viteae infection in Mastomys natalensis at dose 350 mg/kg/5 days (i.p.); details: route intraperitoneal
[11] = system: Mastomys natalensis; test: Compound was evaluated in vivo for microfilaricidal activity against Acanthocheilonema viteae infection in Mastomys natalensis at dose 50 mg/kg *5days (i.p.); details: route intraperitoneal
[12] = system: Mastomys natalensis; test: Compound was evaluated in vivo for microfilaricidal activity against Acanthocheilonema viteae infection in Mastomys natalensis; 0 represents inactive
[13] = system: Acanthocheilonema viteae; test: Antifilarial activity was measured by percent sterilization of A. viteae at dose 50 mg/kg *5days (i.p.); details: route intraperitoneal

Structure (SMILES)	Activity [1]	ATP content [2] [pmol/mg]	Sterility [3] [%]	Tubulin content [4] [pmol/mg]	Glucose uptake [5] [µM/mg]	Lactate production [6] [µM/mg]	Activity [7]	Activity [8]	Sterility [9] [%]	Activity [10]	Activity [11]	Activity [12]	Sterility [13] [%]
O=C1CN(c2cccc3cnccc23)C2CC2O1 (stereo unspecified)	0	74.2	0	35.4	6.09	6.42	34						
CCN(CC)C(=O)N1CCN(C)CC1.O=C(O)CC(O)(CC(=O)O)C(=O)O [DIETHYLCARBAMAZINE CITRATE]								0	0	90			
Clc1ccc2c(Nc3ccc(N4CCOCC4)c4ccncc34)ccnc2c1	60	37.9		45.1	6.26	7.3	76		0				
O=[N+]([O-])c1ccc(N2CCOCC2)c2ccncc12		39.1	0	38.5	6.15	7.19					81	0	
OC1CC1Nc1cccc2cnccc12 (stereo unspecified)		108		70.2	6.67	7.42		0				0	31
